Measured values: ChEMBL document CHEMBL2074542, “Differential recognition of beta -lactam antibiotics by intestinal and renal peptide transporters, PEPT 1 and PEPT 2” (J Biol Chem, 1995)
Peptide text beside a SMILES is read from it.

T1: Solute carrier family 15 member 2 (Homo sapiens, UniProt Q16348)
T1 sequence (Q16348 whole entry): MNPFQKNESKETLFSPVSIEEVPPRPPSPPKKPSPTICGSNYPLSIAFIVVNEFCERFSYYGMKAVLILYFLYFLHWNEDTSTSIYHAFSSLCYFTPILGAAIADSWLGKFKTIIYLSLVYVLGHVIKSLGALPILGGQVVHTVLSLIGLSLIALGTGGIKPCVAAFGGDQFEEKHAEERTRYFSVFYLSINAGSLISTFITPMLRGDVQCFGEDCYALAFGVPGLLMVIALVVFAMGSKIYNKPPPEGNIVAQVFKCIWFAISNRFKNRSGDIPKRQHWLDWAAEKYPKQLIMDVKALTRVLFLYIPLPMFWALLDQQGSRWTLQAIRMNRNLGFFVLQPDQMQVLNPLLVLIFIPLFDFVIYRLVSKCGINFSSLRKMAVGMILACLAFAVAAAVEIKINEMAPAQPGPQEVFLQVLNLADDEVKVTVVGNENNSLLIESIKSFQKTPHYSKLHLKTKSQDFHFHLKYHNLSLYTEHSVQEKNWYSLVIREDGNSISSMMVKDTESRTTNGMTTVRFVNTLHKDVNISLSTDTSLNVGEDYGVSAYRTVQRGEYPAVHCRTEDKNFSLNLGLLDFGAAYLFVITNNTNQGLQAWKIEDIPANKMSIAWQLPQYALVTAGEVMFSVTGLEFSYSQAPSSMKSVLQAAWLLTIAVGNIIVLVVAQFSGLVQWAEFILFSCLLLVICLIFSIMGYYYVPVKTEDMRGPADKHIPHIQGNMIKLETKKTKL

T2: Solute carrier family 15 member 1 (Homo sapiens, UniProt P46059)
T2 sequence (P46059 whole entry): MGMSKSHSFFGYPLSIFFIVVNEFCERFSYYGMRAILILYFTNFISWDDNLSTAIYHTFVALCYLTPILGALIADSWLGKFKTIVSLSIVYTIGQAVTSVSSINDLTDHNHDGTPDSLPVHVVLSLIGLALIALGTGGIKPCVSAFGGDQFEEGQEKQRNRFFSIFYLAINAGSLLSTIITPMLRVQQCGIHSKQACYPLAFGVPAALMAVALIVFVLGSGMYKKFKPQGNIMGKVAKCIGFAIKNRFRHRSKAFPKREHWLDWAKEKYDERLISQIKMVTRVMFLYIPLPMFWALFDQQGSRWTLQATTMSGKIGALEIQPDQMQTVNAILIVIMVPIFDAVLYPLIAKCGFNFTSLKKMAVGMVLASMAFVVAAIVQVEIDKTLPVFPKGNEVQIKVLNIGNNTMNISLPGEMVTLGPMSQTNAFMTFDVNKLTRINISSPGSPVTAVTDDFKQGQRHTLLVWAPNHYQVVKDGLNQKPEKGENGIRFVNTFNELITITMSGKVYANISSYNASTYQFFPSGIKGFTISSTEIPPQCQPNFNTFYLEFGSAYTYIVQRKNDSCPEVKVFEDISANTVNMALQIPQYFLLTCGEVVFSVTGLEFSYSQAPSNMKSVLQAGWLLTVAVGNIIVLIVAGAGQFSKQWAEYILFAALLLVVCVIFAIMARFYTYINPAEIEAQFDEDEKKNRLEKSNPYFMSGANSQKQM

T3: Solute carrier family 15 member 2 (Homo sapiens) (UniProt Q16348)
T3 sequence (whole entry): T1 sequence (Q16348 whole entry)

B1: Solute carrier family 15 member 2 (Rattus norvegicus), Q63424 (protein)
chain: MNPFQKNESKETLFSPVSTEEMLPRPPSPPKKSPPKIFGSSYPVSIAFIVVNEFCERFSYYGMKAVLTLYFLYFLHWNEDTSTSVYHAFSSLCYFTPILGAAIADSWLGKFKTIIYLSLVYVLGHVFKSLGAIPILGGKMLHTILSLVGLSLIALGTGGIKPCVAAFGGDQFEEEHAEARTRYFSVFYLAINAGSLISTFITPMLRGDVKCFGQDCYALAFGVPGLLMVLALVVFAMGSKMYRKPPPEGNIVAQVIKCIWFALCNRFRNRSGDLPKRQHWLDWAAEKYPKHLIADVKALTRVLFLYIPLPMFWALLDQQGSRWTLQANKMNGDLGFFVLQPDQMQVLNPFLVLIFIPLFDLVIYRLISKCRINFSSLRKMAVGMILACLAFAVAALVETKINGMIHPQPASQEIFLQVLNLADGDVKVTVLGSRNNSLLVESVSSFQNTTHYSKLHLEAKSQDLHFHLKYNSLSVHNDHSVEEKNCYQLLIHQDGESISSMLVKDTGIKPANGMAAIRFINTLHKDLNISLDTDAPLSVGKDYGVSAYRTVLRGKYPAVHCETEDKVFSLDLGQLDFGTTYLFVITNITSQGLQAWKAEDIPVNKLSIAWQLPQYVLVTAAEVMFSVTGLEFSYSQAPSSMKSVLQAAWLLTVAVGNIIVLVVAQFSGLAQWAEFVLFSCLLLVVCLIFSVMAYYYVPLKSEDTREATDKQIPAVQGNMINLETKNTRL

Key:
[1] = target: T1, Solute carrier family 15 member 2; test: TP_TRANSPORTER: inhibition of Gly-Sar uptake (Gly-Sar: 50 uM) in PEPT2-expressing HeLa cells; type: functional, cell-based
[2] = target: T2, Solute carrier family 15 member 1
Description: TP_TRANSPORTER: inhibition of Gly-Sar uptake (Gly-Sar: 25 uM) in PEPT1-expressing HeLa cells

[3] = target: T2, Solute carrier family 15 member 1; test: TP_TRANSPORTER: inhibition of Gly-Sar uptake (Gly-Sar: 5 uM) in Caco-2 cells; type: functional, cell-based
[4] = target: T1, Solute carrier family 15 member 2; test: TP_TRANSPORTER: inhibition of Gly-Sar uptake in SKPT cells; type: functional, cell-based
[5] = target: T3, Solute carrier family 15 member 2 (Homo sapiens); test: TP_TRANSPORTER: uptake in PEPT2-expressing HeLa cells; type: functional, cell-based
[6] = target: T1, Solute carrier family 15 member 2; test: TP_TRANSPORTER: inhibition of Cephalexin uptake in SKPT cells; type: functional, cell-based
[7] = substrate: CC1=C(C(=O)O)N2C(=O)[C@@H](NC(=O)[C@H](N)c3ccccc3)[C@H]2SC1; test: TP_TRANSPORTER: uptake in SKPT cells; type: functional, cell-based

| Molecule | IC50 [1] [µM] | IC50 [2] [µM] | IC50 [3] [µM] | Ki [4] [µM] | further results |
| --- | --- | --- | --- | --- | --- |
| CC1=C(C(=O)O)N2C(=O)[C@@H](NC(=O)[C@H](N)c3ccc(O)cc3)[C@H]2SC1 [CEFADROXIL] | 66 | 870 | 5400 | 2.8 |  |
| CC1=C(C(=O)O)N2C(=O)[C@@H](NC(=O)[C@H](N)c3ccccc3)[C@H]2SC1 [CEPHALEXIN ANHYDROUS] |  |  |  | 68.2 | Activity [5]: substrate [+] |
| CN(CC(=O)O)C(=O)CN [GLYCYLSARCOSINE] (HELM PEPTIDE1{G.[Sar]}$$$$V2.0) |  |  |  |  | Ki [6]: 64 µM |
| CC1(C)S[C@@H]2[C@H](NC(=O)C3(N)CCCCC3)C(=O)N2[C@H]1C(=O)O [CYCLACILLIN] | 610 | 350 | 600 | 39.1 |  |
| B1 |  |  |  |  | Km [7]: 49 µM |
